The results in this text go back to patent US10174035B2, “6-morpholinyl-2-pyrazolyl-9H-purine derivatives and their use as PI3K inhibitors” (Daiichi Sankyo Company, Limited, priority 2015, dated 2019).

The target of the assay is recombinant PI3K δ enzyme (Homo sapiens (Human), UniProt O00329). Nature of the assay: In vitro enzyme assay (Kinase-Glo luminescent kinase assay), PI3Kδ. The class given is biochemical. Put shortly:
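Each recombinant human PI3K isoform at 2.29 μg/mL with 60 μM PIP2 and 10 μM ATP in HEPES pH 7.4, NaCl, CHAPS, MgCl2, DTT, 2 hours at room temperature. Remaining ATP read by Kinase-Glo luminescence relative to no-enzyme blanks.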
A general note: Kinase-Glo measures the ATP left after a reaction by luminescence.

recombinant PI3K δ enzyme, sequence (O00329 whole entry, species assumed, canonical isoform): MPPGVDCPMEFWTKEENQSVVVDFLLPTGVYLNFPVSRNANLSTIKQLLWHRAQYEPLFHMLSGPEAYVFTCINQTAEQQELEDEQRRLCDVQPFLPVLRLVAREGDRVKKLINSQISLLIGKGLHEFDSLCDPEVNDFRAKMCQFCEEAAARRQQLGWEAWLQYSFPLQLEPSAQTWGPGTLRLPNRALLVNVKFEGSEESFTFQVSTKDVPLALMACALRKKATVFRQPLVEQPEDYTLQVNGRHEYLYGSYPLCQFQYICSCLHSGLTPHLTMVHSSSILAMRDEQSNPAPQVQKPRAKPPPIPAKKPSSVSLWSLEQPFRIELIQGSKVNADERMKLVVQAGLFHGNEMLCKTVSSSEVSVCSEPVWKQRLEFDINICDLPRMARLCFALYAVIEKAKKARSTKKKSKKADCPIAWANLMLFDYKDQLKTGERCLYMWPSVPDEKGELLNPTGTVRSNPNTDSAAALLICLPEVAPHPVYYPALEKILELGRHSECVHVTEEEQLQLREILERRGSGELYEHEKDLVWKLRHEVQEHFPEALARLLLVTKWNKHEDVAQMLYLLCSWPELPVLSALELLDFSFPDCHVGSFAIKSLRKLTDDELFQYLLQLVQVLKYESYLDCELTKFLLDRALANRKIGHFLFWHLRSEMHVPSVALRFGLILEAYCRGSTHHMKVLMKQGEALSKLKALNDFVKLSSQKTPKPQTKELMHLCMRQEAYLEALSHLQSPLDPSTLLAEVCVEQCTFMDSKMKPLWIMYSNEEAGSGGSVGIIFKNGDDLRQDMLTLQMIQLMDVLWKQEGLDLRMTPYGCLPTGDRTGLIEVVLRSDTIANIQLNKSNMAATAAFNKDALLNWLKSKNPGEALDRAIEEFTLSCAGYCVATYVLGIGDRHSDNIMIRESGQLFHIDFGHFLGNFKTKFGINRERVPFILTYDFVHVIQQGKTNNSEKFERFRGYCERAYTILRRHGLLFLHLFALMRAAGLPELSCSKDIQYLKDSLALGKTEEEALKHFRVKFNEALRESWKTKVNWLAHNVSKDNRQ
recombinant PI3K δ enzyme, sequence (P27986 whole entry partner, species assumed, canonical isoform): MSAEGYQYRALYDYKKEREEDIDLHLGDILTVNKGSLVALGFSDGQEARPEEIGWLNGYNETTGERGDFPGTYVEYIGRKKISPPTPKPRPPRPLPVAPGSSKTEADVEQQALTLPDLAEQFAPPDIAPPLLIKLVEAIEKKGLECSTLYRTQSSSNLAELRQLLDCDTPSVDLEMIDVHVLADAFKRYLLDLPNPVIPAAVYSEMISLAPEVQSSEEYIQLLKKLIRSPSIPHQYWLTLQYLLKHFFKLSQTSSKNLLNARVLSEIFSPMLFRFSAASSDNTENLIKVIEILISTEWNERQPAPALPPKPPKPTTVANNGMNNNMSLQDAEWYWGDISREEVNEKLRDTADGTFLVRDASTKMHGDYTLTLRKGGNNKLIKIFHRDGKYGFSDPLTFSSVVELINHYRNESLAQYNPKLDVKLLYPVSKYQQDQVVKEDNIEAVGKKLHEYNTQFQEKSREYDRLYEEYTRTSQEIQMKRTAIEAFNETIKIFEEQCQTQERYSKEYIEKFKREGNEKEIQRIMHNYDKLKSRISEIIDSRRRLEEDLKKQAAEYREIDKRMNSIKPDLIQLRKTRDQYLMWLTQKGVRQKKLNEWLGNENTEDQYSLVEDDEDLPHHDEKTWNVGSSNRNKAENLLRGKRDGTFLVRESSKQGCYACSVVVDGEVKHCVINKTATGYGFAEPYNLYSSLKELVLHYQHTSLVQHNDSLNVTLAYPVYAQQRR

In general, IC50 refers to the concentration that inhibits the measured activity by half. Turning to `Cn1cc(-c2cc(N3CCOCC3)c3nc(C(=O)N4CC(N5CCOCC5)C4)[nH]c3n2)cn1` [compound 120, [5-(1-Methyl-1H-pyrazol-4-yl)-7-(morpholin-4-yl)-3H-imidazo[4,5-b]pyridin-2-yl][3-(morpholin-4-yl)azetidin-1-yl]methanone], the IC50 was determined as 10 nM.

For `Cc1nn(C)cc1-c1nc2c(nc(C(=O)N3CCC(C(C)(C)O)CC3)n2C)c(N2CCOCC2)c1F` [compound 107, [5-(1,3-Dimethyl-1H-pyrazol-4-yl)-6-fluoro-3-methyl-7-(morpholin-4-yl)-3H-imidazo[4,5-b]pyridin-2-yl][4-(2-hydroxypropan-2-yl)piperidin-1-yl]methanone], the concentration for half-maximal inhibition (IC50) turned out to be 58 nM. Then `Cn1cc(-c2nc(N3CCOCC3)c3nc(C(=O)NCCN4CCOCC4)[nH]c3n2)cn1` [compound 2, 2-(1-Methyl-1H-pyrazol-4-yl)-6-(morpholin-4-yl)-N-[2-(morpholin-4-yl)ethyl]-9H-purine-8-carboxamide], with 48 nM; and `CC(=O)N1CCN(C(=O)c2nc3c(N4CCOCC4)nc(-c4cnn(C)c4)nc3[nH]2)CC1` [compound 39, 1-(4-{[2-(1-Methyl-1H-pyrazol-4-yl)-6-(morpholin-4-yl)-9H-purin-8-yl]carbonyl}piperazin-1-yl)ethanone], with 26 nM; and `CN(CCN1CCOCC1)C(=O)c1nc2c(N3CCOCC3)nc(-c3cnn(C)c3)nc2[nH]1` [compound 60, N-methyl-2-(1-methyl-1H-pyrazol-4-yl)-6-(morpholin-4-yl)-N-[2-(morpholin-4-yl)ethyl]-9H-purine-8-carboxamide], with 159 nM. Then `Cn1cc(-c2nc(N3CCOCC3)c3nc(C(=O)N4CCN5C(=O)COC[C@H]5C4)[nH]c3n2)cn1` [compound 6, (9aR)-8-{[2-(1-Methyl-1H-pyrazol-4-yl)-6-(morpholin-4-yl)-9H-purin-8-yl]carbonyl}hexahydropyrazino[2,1-c][1,4]oxazin-4(3H)-one], with 36 nM.

`CCOC(=O)CC1CCN(C(=O)c2nc3c(N4CCOCC4)nc(-c4cnn(C)c4)nc3[nH]2)CC1` [compound 51, Ethyl (1-{[2-(1-methyl-1H-pyrazol-4-yl)-6-(morpholin-4-yl)-9H-purin-8-yl]carbonyl}piperidin-4-yl)acetate]: the IC50 turned out to be 56 nM. For `Cn1cc(-c2nc(N3CCOCC3)c3nc(C(=O)N4CC(O)C4)[nH]c3n2)cn1` [compound 4, (3-Hydroxyazetidin-1-yl)[2-(1-methyl-1H-pyrazol-4-yl)-6-(morpholin-4-yl)-9H-purin-8-yl]methanone], the IC50 was 27 nM. Then `CC(=O)N[C@H]1CCN(C(=O)c2nc3c(N4CCOCC4)nc(-c4cnn(C)c4)nc3[nH]2)C1` [compound 37, N-[(3S)-1-{[2-(1-methyl-1H-pyrazol-4-yl)-6-(morpholin-4-yl)-9H-purin-8-yl]carbonyl}pyrrolidin-3-yl]acetamide], with 31 nM; and `Cn1cc(-c2nc(N3CCOCC3)c3nc(C(=O)N4CCC5(CC4)CNC(=O)C5)[nH]c3n2)cn1` [compound 122, 8-{[2-(1-Methyl-1H-pyrazol-4-yl)-6-(morpholin-4-yl)-9H-purin-8-yl]carbonyl}-2,8-diazaspiro[4.5]decan-3-one], with 20 nM. In the case of `Cc1c(-c2nc3[nH]c(C(=O)N4CCC(N5CCOCC5)CC4)nc3c(N3CCOCC3)c2F)cnn1C` [compound 95, [5-(1,5-Dimethyl-1H-pyrazol-4-yl)-6-fluoro-7-(morpholin-4-yl)-3H-imidazo[4,5-b]pyridin-2-yl][4-(morpholin-4-yl)piperidin-1-yl]methanone] it was 202 nM; in that of `Cn1cc(-c2cc(N3CCOCC3)c3nc(C(=O)N4CCC(N5CCOCC5)CC4)n(C)c3n2)cn1` [compound 106, [3-Methyl-5-(1-methyl-1-pyrazol-4-yl)-7-(morpholin-4-yl)-3H-imidazo[4,5-b]pyridin-2-yl][4-(morpholin-4-yl)piperidin-1-yl]methanone], 30 nM.
